This passage reports IC50 results from patent US20220380338A1, “CYCLOALKYL 3-OXOPIPERAZINE CARBOXAMIDES AND CYCLOHETEROALKYL 3-OXOPIPERAZINE CARBOXAMIDES AS NAV1.8 INHIBITORS” (Merck Sharp & Dohme LLC, priority 2021, published 2022).

In this test the target is T1, human NaV1.8 (Homo sapiens, UniProt Q9Y5Y9).
T1 construct: expressed in transfected cells
T1 sequence (Q9Y5Y9 whole entry): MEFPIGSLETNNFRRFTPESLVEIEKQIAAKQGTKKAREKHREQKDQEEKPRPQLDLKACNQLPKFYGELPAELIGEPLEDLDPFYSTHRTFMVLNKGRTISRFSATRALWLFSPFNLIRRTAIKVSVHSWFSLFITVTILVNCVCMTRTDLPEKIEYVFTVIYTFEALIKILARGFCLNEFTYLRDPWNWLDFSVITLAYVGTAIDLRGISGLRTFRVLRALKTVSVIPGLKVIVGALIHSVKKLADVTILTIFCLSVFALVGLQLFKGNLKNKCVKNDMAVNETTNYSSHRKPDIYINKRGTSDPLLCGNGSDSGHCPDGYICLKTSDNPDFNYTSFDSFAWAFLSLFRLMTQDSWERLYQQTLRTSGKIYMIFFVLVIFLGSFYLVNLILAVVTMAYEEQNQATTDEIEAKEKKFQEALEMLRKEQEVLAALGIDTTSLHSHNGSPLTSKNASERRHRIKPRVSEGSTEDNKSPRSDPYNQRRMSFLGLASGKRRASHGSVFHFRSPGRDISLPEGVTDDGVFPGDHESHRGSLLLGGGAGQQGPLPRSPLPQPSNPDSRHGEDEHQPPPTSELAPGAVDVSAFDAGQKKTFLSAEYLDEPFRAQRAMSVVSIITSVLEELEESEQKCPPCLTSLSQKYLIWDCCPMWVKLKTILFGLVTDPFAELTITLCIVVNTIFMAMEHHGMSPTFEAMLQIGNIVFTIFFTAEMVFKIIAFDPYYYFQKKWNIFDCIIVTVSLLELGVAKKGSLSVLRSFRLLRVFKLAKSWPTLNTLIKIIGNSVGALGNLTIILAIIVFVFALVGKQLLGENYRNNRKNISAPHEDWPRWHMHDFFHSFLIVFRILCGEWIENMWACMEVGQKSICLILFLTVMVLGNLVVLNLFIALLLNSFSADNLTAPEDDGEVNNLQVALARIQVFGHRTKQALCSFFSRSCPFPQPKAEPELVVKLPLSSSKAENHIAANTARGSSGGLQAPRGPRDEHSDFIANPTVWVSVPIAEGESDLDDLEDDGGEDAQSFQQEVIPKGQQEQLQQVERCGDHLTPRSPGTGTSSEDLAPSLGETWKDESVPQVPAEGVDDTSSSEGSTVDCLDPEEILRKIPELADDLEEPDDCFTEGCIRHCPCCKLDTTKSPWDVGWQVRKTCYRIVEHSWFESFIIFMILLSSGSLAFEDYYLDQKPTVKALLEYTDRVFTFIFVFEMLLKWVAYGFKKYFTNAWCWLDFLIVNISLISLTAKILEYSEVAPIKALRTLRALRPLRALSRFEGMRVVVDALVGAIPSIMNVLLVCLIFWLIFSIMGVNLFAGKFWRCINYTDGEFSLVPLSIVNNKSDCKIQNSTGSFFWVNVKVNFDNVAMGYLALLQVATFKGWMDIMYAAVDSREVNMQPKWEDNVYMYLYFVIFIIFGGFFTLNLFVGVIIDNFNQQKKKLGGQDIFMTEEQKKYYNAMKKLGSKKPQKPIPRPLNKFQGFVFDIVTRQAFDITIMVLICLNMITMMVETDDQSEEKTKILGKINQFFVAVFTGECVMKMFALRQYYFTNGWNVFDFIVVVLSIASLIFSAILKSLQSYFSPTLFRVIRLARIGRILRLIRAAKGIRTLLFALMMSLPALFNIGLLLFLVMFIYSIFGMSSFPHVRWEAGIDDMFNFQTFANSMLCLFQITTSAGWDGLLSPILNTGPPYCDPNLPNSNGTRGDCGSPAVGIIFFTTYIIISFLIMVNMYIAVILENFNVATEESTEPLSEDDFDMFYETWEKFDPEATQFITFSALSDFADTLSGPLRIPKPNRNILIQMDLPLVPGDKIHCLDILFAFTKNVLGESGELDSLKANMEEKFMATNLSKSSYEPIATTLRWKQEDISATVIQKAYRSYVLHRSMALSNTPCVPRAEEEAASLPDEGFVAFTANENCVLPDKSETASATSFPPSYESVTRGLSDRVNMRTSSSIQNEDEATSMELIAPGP
The experiment in a line: Nav1.8 Qube® Assay (automated 384-well patch-clamp, inhibition of sodium current). In kind it is cell-based. The following applies: human NaV1.8 channels stably expressed in HEK 293 cells, room temperature. The method in brief: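 Whole-cell voltage clamp at room temperature in HEK293 cells stably expressing NaV1.8; from −90 mV hold, 10 s 1 Hz train of 20 ms pulses to 10 mV with 980 ms repolarization to −67 mV. Peak currents of 1st and 10th pulses give resting and inactivated-state IC50s, Hill fit.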
For orientation: The patch-clamp technique gives a direct electrical read-out from membranes.
A word on the IC50: it is the midpoint of a concentration-inhibition curve. With `C[C@@H]1C(=O)NCCN1C(=O)NC(c1ccc(F)c(Cl)c1)C1CC(OC(F)F)C1` (single isomer, unassigned) [Example 38A, (2R)-N-((R or S)-(3-chloro-4-fluoro-phenyl)-(trans-3-(difluoro-methoxy)cyclobutyl)-methyl)-2-methyl-3-oxopiperazine-1-carboxamide], the IC50 was determined as 146 nM. In the case of `C[C@@H]1C(=O)NCCN1C(=O)NC(c1ccc(F)c(Cl)c1)C1CC(OC(F)F)C1` (single isomer, unassigned) [Example 38B, (2R)-N-((R or S)-(3-chloro-4-fluorophenyl) (cis-3-(difluoromethoxy)cyclobutyl)methyl)-2-methyl-3-oxopiperazine-1-carboxamide], the IC50 came out at 158 nM.

On to `C[C@@H]1C(=O)NCCN1C(=O)NC(c1ccc(F)c(Cl)c1)C1CC(OC(F)F)C1` (single isomer, unassigned) [Example 38C, (2R)-N-((S or R)-(3-chloro-4-fluorophenyl) (cis-3-(difluoromethoxy)cyclobutyl)methyl)-2-methyl-3-oxopiperazine-1-carboxamide], for which the IC50 came to 87.1 nM.

`C[C@@H]1C(=O)NCCN1C(=O)NC(c1ccc(F)c(Cl)c1)C1CC(OC(F)F)C1` (single isomer, unassigned) [Example 38D, (2R)-N-((S or R)-(3-chloro-4-fluorophenyl)-(trans-3-(difluoro-methoxy)cyclobutyl)-methyl)-2-methyl-3-oxopiperazine-1-carboxamide] registered an IC50 of 17.9 nM. Regarding `C[C@@H]1C(=O)NCCN1C(=O)NC(c1ccc(F)c(Cl)c1F)C1CC(OC(F)F)C1` (single isomer, unassigned) [Example 39A, (2R)-N-((R or S)-(3-chloro-2,4-difluoro-phenyl)(trans-3-(difluoromethoxy)-cyclobutyl)methyl)-2-methyl-3-oxopiperazine-1-carboxamide], the midpoint of inhibition, the IC50, lay at 816 nM. `C[C@@H]1C(=O)NCCN1C(=O)NC(c1ccc(F)c(Cl)c1F)C1CC(OC(F)F)C1` (single isomer, unassigned) [Example 39B, (2R)-N-((R or S)-(3-chloro-2,4-difluoro-phenyl)(cis-3-(difluoro-methoxy)cyclobutyl)-methyl)-2-methyl-3-oxopiperazine-1-carboxamide]: the IC50 was determined as 916 nM. On to `C[C@@H]1C(=O)NCCN1C(=O)NC(c1ccc(F)c(Cl)c1F)C1CC(OC(F)F)C1` (single isomer, unassigned) [Example 39C, (2R)-N-((S or R)-(3-chloro-2,4-difluoro-phenyl)(cis-3-(difluoro-methoxy)cyclobutyl)-methyl)-2-methyl-3-oxopiperazine-1-carboxamide], for which the midpoint of inhibition, the IC50, lay at 48.5 nM. `C[C@@H]1C(=O)NCCN1C(=O)NC(c1ccc(F)c(Cl)c1F)C1CC(OC(F)F)C1` (single isomer, unassigned) [Example 39D, (2R)-N-((S or R)-(3-chloro-2,4-difluoro-phenyl)(trans-3-(difluoro-methoxy)cyclobutyL)-methyl)-2-methyl-3-oxopiperazine-1-carboxamide]: the 50% inhibitory concentration (IC50) is 8.1 nM.

As for `COC1CC(C(NC(=O)N2CCNC(=O)[C@H]2C)c2ccc(F)c(Cl)c2F)C1` (single isomer, unassigned) [Example 40A, (2R)-N-((R or S)-(3-chloro-2,4-difluoro-phenyl)(trans-3-methoxy-cyclobutyl)methyl)-2-methyl-3-oxopiperazine-1-carboxamide], it took 11700 nM to reach half-maximal inhibition (IC50). This IC50 is about 1400-fold higher than that of the compound before. As for `COC1CC(C(NC(=O)N2CCNC(=O)[C@H]2C)c2ccc(F)c(Cl)c2F)C1` (single isomer, unassigned) [Example 40B, (2R)-N-((R or S)-(3-chloro-2,4-difluoro-phenyl)(cis-3-methoxy-cyclobutyl)methyl)-2-methyl-3-oxopiperazine-1-carboxamide], the figure is 14500 nM.

As to `COC1CC(C(NC(=O)N2CCNC(=O)[C@H]2C)c2ccc(F)c(Cl)c2F)C1` (single isomer, unassigned) [Example 40C, (2R)-N-((S or R)-(3-chloro-2,4-difluoro-phenyl)(cis-3-methoxycyclobutyl)-methyl)-2-methyl-3-oxopiperazine-1-carboxamide], the IC50 turned out to be 362 nM. Against the preceding compound, the IC50 is about 40-fold lower. In turn, `COC1CC(C(NC(=O)N2CCNC(=O)[C@H]2C)c2ccc(F)c(Cl)c2F)C1` (single isomer, unassigned) [Example 40D, (2R)-N-((S or R)-(3-chloro-2,4-difluoro-phenyl)(trans-3-methoxycyclobutyl)-methyl)-2-methyl-3-oxopiperazine-1-carboxamide] returned an IC50 of 108 nM. As for `C[C@@H]1C(=O)NCCN1C(=O)NC(c1ccc(F)c(Cl)c1F)C1CC12CC2` (single isomer, unassigned) [Example 41A, (2R)-N-((R or S)-(3-chloro-2,4-difluoro-phenyl)((R or S)-spiro[2.2]pentan-1-yl)methyl)-2-methyl-3-oxopiperazine-1-carboxamide], the figure is 31.6 nM. `C[C@@H]1C(=O)NCCN1C(=O)NC(c1ccc(F)c(Cl)c1F)C1CC12CC2` (single isomer, unassigned) [Example 41B, (2R)-N-((S or R)-(3-chloro-2,4-difluoro-phenyl)((R or S)-spiro[2.2]pentan-1-yl)methyl)-2-methyl-3-oxopiperazine-1-carboxamide] gave an IC50 of 1180 nM. Regarding `C[C@@H]1C(=O)NCCN1C(=O)NC(c1ccc(F)c(Cl)c1F)C1CC12CC2` (single isomer, unassigned) [Example 41C, (2R)-N-((R or S)-(3-chloro-2,4-difluoro-phenyl)(S or R)-spiro[2.2]pentan-1-yl)methyl)-2-methyl-3-oxopiperazine-1-carboxamide], half-maximal inhibition (IC50) was put at 143 nM. Compound `C[C@@H]1C(=O)NCCN1C(=O)NC(c1ccc(F)c(Cl)c1F)C1CC12CC2` (single isomer, unassigned) [Example 41D, (2R)-N-((S or R)-(3-chloro-2,4-difluoro-phenyl)((S or R)-spiro[2.2]pentan-1-yl)methyl)-2-methyl-3-oxopiperazine-1-carboxamide] displayed an IC50 of 1060 nM. As for `C[C@@H]1C(=O)NCCN1C(=O)NC(c1ccc(F)c(Cl)c1F)C1CCC(F)(F)C1` (single isomer, unassigned) [Example 42A, (2R)-N-((R or S)-(3-choro-2,4-difluoro-phenyl)((R or S)-3,3-difluorocyclopentyl)-methyl)-2-methyl-3-oxopiperazine-1-carboxamide], the figure is 321 nM; as for `C[C@@H]1C(=O)NCCN1C(=O)NC(c1ccc(F)c(Cl)c1F)C1CCC(F)(F)C1` (single isomer, unassigned) [Example 42B, (2R)-N-((R or S)-(3-chloro-2,4-difluoro-phenyl)((S or R)-3,3-difluorocyclopentyl)-methyl)-2-methyl-3-oxopiperazine-1-carboxamide], 2830 nM; as for `C[C@@H]1C(=O)NCCN1C(=O)NC(c1ccc(F)c(Cl)c1F)C1CCC(F)(F)C1` (single isomer, unassigned) [Example 42C, (2R)-N-((S or R)-(3-chloro-2,4-difluoro-phenyl)((R or S)-(3,3-difluorocyclopentyl)-methyl)-2-methyl-3-oxopiperazine-1-carboxamide], 24.1 nM.
